Experimental findings from ChEMBL document CHEMBL5696442, “Discovery of type II inhibitors of TGFβ-activated kinase 1 (TAK1) and mitogen-activated protein kinase kinase kinase kinase 2 (MAP4K2)” (J Med Chem, 2015) are described below.

Test [1] concerns the target Cyclin-dependent kinase 11A (Homo sapiens) (UniProt Q9UQ88). Kind of test: Inhibition of CDC2L2 (unknown origin) at 1 uM by Ambit Kinomescan binding assay relative to control; values are per cent of control.
In test [2] the target is T1, Mitogen-activated protein kinase kinase kinase 6 (Homo sapiens) (UniProt O95382).
T1 sequence (whole entry): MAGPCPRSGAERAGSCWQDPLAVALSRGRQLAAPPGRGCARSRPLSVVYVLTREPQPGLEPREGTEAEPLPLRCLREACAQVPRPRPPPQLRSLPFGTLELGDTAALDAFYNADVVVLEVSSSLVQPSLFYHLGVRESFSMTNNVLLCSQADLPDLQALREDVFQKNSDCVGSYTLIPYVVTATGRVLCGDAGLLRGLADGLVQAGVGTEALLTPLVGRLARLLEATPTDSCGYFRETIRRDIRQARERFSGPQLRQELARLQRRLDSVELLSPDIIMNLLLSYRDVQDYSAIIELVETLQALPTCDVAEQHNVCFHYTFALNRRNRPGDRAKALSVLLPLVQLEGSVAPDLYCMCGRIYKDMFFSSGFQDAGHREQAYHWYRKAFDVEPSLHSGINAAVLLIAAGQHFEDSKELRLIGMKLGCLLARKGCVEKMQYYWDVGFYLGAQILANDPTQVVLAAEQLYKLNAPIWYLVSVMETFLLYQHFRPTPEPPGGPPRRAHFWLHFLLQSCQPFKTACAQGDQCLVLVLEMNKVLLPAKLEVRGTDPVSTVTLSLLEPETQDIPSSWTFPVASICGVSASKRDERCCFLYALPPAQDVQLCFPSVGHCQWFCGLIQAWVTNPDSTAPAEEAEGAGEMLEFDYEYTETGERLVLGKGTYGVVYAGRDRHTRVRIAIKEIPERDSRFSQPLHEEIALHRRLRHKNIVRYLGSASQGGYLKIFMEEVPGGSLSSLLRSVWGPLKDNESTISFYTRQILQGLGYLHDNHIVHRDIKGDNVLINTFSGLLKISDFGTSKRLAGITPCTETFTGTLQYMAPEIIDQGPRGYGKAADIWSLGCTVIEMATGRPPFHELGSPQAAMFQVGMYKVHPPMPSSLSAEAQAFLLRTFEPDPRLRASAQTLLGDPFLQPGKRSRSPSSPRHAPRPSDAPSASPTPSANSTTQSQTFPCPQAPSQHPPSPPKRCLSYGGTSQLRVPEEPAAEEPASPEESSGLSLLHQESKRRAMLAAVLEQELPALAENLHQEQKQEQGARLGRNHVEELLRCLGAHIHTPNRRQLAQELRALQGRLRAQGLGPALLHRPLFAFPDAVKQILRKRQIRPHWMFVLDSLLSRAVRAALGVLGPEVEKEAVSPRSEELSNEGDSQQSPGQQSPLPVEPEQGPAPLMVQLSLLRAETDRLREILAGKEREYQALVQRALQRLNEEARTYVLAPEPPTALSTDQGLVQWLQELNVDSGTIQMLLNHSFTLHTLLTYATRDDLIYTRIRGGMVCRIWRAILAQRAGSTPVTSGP
Kind of test: Inhibition of MAP3K6 Lys1 labeling site harbouring IAIKEIPERDSR in human A-375 cells at 0.05 uM by KiNativ Profiling analysis relative to control. In kind it is cell-based.

The target in test [3] is T2, Serine/threonine-protein kinase TBK1 (Homo sapiens) (UniProt Q9UHD2).
T2 sequence (whole entry): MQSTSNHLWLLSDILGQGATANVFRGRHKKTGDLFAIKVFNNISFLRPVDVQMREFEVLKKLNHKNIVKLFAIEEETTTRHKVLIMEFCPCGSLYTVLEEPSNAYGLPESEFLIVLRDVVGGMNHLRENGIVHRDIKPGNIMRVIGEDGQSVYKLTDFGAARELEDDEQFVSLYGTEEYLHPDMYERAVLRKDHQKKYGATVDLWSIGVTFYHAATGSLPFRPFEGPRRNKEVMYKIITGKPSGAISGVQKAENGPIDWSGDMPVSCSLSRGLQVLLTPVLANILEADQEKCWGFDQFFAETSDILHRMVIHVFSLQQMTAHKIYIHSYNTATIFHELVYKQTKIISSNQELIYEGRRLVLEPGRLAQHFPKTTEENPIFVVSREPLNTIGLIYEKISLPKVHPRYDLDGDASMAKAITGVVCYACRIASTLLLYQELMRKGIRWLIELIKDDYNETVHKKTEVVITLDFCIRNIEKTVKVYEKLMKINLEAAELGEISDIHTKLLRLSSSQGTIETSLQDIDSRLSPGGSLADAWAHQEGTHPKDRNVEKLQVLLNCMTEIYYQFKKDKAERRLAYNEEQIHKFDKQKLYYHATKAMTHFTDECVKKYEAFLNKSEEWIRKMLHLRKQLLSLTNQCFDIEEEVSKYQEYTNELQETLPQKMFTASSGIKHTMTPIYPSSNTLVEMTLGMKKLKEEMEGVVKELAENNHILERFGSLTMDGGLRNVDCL
The experiment in a line: Inhibition of TBK1 K1 labeling site in human Huh-7 cells at 1 uM by KiNativ Profiling analysis relative to control. In kind it is cell-based.

The target of test [4] is T3, Dual specificity mitogen-activated protein kinase kinase 6 (Homo sapiens) (UniProt P52564).
T3 sequence (whole entry): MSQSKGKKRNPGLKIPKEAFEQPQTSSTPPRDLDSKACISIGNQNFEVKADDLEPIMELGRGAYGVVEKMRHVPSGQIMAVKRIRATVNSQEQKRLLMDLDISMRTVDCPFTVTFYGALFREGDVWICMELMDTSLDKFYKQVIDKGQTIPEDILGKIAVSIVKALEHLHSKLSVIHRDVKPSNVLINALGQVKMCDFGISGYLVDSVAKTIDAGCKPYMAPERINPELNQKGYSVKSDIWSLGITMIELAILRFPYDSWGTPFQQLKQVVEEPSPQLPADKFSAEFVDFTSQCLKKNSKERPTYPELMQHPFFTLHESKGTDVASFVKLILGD
Kind of test: Inhibition of MAP2K6 Lys2 labeling site in human Huh-7 cells at 1 uM by KiNativ Profiling analysis relative to control. The format is cell-based.

The term residual activity denotes the activity still measured, relative to the control. One may read the inhibition as the relative decrease from the control value, in per cent.

Cyclin-dependent kinase 11A (Homo sapiens), sequence (Q9UQ88 whole entry): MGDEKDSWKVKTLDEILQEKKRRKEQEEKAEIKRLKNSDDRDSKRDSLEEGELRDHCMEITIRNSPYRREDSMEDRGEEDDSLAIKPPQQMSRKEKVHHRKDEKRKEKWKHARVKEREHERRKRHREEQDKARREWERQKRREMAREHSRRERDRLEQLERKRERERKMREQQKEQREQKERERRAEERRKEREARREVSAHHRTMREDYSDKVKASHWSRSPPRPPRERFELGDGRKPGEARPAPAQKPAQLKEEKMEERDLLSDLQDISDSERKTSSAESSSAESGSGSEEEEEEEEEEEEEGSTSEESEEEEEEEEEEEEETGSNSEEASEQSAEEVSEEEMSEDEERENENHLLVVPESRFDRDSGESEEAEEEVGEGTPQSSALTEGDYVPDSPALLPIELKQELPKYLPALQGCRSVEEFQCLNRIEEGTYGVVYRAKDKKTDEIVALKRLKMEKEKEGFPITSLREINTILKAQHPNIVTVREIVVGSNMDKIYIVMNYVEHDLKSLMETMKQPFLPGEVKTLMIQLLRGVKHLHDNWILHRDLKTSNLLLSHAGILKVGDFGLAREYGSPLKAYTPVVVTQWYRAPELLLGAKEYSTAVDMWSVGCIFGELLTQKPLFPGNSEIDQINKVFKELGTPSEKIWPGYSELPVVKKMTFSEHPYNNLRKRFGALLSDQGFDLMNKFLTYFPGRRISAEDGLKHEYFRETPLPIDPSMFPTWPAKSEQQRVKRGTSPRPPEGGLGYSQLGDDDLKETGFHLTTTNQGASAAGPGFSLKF

Regarding `CCN1CCN(Cc2ccc(NC(=O)c3ccc(C)c(/C=C/c4cnc5[nH]ccc5c4OC)c3)cc2C(F)(F)F)CC1`, in test [1], the residual activity worked out at 70%. Take `CCN1CCN(Cc2ccc(NC(=O)c3ccc(C)c(Oc4ccnc5[nH]ccc45)c3)cc2C(F)(F)F)CC1`: the inhibition in test [2] is -3.3%; in test [3] it was -9.5%.

With `CNc1cc(Oc2cc(C(=O)Nc3cc(N4CCN(C)CC4)cc(C(F)(F)F)c3)ccc2C)ncn1`, the inhibition in test [4] was -1.5%.
